Experiment: Influencing factors stability (heating, light illumination, high humidity; spread and uncovered, 20 days)
Format: physicochemical
Details: for Maximum single impurity / Purity / Total impurities: monohydrochloride; for stability under the influencing factor conditions (in words): light illumination
Experimental: Example 6: the crystal form I of the dihydrochloride salt of the compound represented by formula (I) (example 1) was spread and uncovered, and the steadily of the sample was evaluated under heating (40° C., 60° C.), light illumination (4500 Lux), and high humidity (RH 75%, RH 90%) with a period of 20 days.
Example 10: the crystal form A (example 7) of the monohydrochloride salt of the compound of formula (I) was spread and uncovered, and the stability of the sample was evaluated under heating (40° C., 60° C.), light illumination (4500 Lux), high humidity (RH 75%, RH 90%) conditions with a period of 20 days.
Example 11: the crystal form B of the monohydrochloride salt of the compound represented by formula (I) (example 8) was spread and uncovered, and the stability of the sample was evaluated under heating (40° C., 60° C.), light illumination (4500 Lux), high humidity (RH 75%, RH 90%) conditions with a period of 20 days.
Example 12: the crystal form C of the monohydrochloride salt of the compound represented by formula (I) (example 9) was spread and uncovered, and the stability of the sample was evaluated under heating (40° C., 60° C.), light illumination (4500 Lux), high humidity (RH 75%, RH 90%) conditions with a period of 20 days.

[1] = light illumination (4500 Lux), 4 days
[2] = light illumination (4500 Lux), 10 days
[3] = light illumination (4500 Lux), 20 days
[4] = 40° C., 60° C., 75% RH, 90% RH, 20 days

CCCCOc1nc(N)c2cnn(Cc3ccc(CN4CCCC4)cc3)c2n1.Cl [crystal form B, 6-butoxy-1-(4-(pyrrolidin-1-ylmethyl)benzyl)-1H-pyrazolo[3,4-d]pyrimidin-4-amine monohydrochloride]
Maximum single impurity (0 day): 0.10% | Purity (0 day): 99.54% | Total impurities (0 day): 0.46% | Maximum single impurity (40° C., 4 days): 0.19% | Purity (40° C., 4 days): 99.31% | Total impurities (40° C., 4 days): 0.69% | Maximum single impurity (40° C., 10 days): 0.10% | Purity (40° C., 10 days): 99.53% | Total impurities (40° C., 10 days): 0.47% | Maximum single impurity (40° C., 20 days): 0.14% | Purity (40° C., 20 days): 99.39% | Total impurities (40° C., 20 days): 0.61% | Maximum single impurity (60° C., 4 days): 0.14% | Purity (60° C., 4 days): 99.34% | Total impurities (60° C., 4 days): 0.66% | Maximum single impurity (60° C., 10 days): 0.10% | Purity (60° C., 10 days): 99.42% | Total impurities (60° C., 10 days): 0.58% | Maximum single impurity (60° C., 20 days): 0.10% | Purity (60° C., 20 days): 99.21% | Total impurities (60° C., 20 days): 0.79% | Maximum single impurity (75% RH, 4 days): 0.11% | Purity (75% RH, 4 days): 99.54% | Total impurities (75% RH, 4 days): 0.46% | Maximum single impurity (75% RH, 10 days): 0.10% | Purity (75% RH, 10 days): 99.61% | Total impurities (75% RH, 10 days): 0.39% | Maximum single impurity (75% RH, 20 days): 0.10% | Purity (75% RH, 20 days): 99.57% | Total impurities (75% RH, 20 days): 0.43% | Maximum single impurity (90% RH, 4 days): 0.10% | Purity (90% RH, 4 days): 99.54% | Total impurities (90% RH, 4 days): 0.46% | Maximum single impurity (90% RH, 10 days): 0.10% | Purity (90% RH, 10 days): 99.61% | Total impurities (90% RH, 10 days): 0.39% | Maximum single impurity (90% RH, 20 days): 0.10% | Purity (90% RH, 20 days): 99.59% | Total impurities (90% RH, 20 days): 0.41% | Maximum single impurity [1]: 0.10% | Purity [1]: 99.51% | Total impurities [1]: 0.49% | Maximum single impurity [2]: 0.10% | Purity [2]: 99.56% | Total impurities [2]: 0.44% | Maximum single impurity [3]: 0.11% | Purity [3]: 99.45% | Total impurities [3]: 0.55% | stability under the influencing factor conditions (in words) [4]: good

CCCCOc1nc(N)c2cnn(Cc3ccc(CN4CCCC4)cc3)c2n1.Cl [crystal form C, 6-butoxy-1-(4-(pyrrolidin-1-ylmethyl)benzyl)-1H-pyrazolo[3,4-d]pyrimidin-4-amine monohydrochloride]
Maximum single impurity (0 day): 0.10% | Purity (0 day): 99.55% | Total impurities (0 day): 0.45% | Maximum single impurity (40° C., 4 days): 0.10% | Purity (40° C., 4 days): 99.55% | Total impurities (40° C., 4 days): 0.45% | Maximum single impurity (40° C., 10 days): 0.10% | Purity (40° C., 10 days): 99.60% | Total impurities (40° C., 10 days): 0.40% | Maximum single impurity (40° C., 20 days): 0.10% | Purity (40° C., 20 days): 99.53% | Total impurities (40° C., 20 days): 0.47% | Maximum single impurity (60° C., 4 days): 0.10% | Purity (60° C., 4 days): 99.50% | Total impurities (60° C., 4 days): 0.50% | Maximum single impurity (60° C., 10 days): 0.10% | Purity (60° C., 10 days): 99.58% | Total impurities (60° C., 10 days): 0.42% | Maximum single impurity (60° C., 20 days): 0.13% | Purity (60° C., 20 days): 99.42% | Total impurities (60° C., 20 days): 0.58% | Maximum single impurity (75% RH, 4 days): 0.11% | Purity (75% RH, 4 days): 99.55% | Total impurities (75% RH, 4 days): 0.45% | Maximum single impurity (75% RH, 10 days): 0.09% | Purity (75% RH, 10 days): 99.61% | Total impurities (75% RH, 10 days): 0.39% | Maximum single impurity (75% RH, 20 days): 0.10% | Purity (75% RH, 20 days): 99.57% | Total impurities (75% RH, 20 days): 0.43% | Maximum single impurity (90% RH, 4 days): 0.11% | Purity (90% RH, 4 days): 99.51% | Total impurities (90% RH, 4 days): 0.49% | Maximum single impurity (90% RH, 10 days): 0.10% | Purity (90% RH, 10 days): 99.61% | Total impurities (90% RH, 10 days): 0.39% | Maximum single impurity (90% RH, 20 days): 0.10% | Purity (90% RH, 20 days): 99.58% | Total impurities (90% RH, 20 days): 0.42% | Maximum single impurity [1]: 0.11% | Purity [1]: 99.57% | Total impurities [1]: 0.43% | Maximum single impurity [2]: 0.09% | Purity [2]: 99.64% | Total impurities [2]: 0.36% | Maximum single impurity [3]: 0.10% | Purity [3]: 99.54% | Total impurities [3]: 0.46% | stability under the influencing factor conditions (in words) [4]: good

CCCCOc1nc(N)c2cnn(Cc3ccc(CN4CCCC4)cc3)c2n1.Cl [crystal form A, 6-butoxy-1-(4-(pyrrolidin-1-ylmethyl)benzyl)-1H-pyrazolo[3,4-d]pyrimidin-4-amine monohydrochloride]
Maximum single impurity (0 day): 0.09% | Purity (0 day): 99.74% | Total impurities (0 day): 0.26% | Maximum single impurity (40° C., 4 days): 0.09% | Purity (40° C., 4 days): 99.72% | Total impurities (40° C., 4 days): 0.28% | Maximum single impurity (40° C., 10 days): 0.06% | Purity (40° C., 10 days): 99.72% | Total impurities (40° C., 10 days): 0.28% | Maximum single impurity (40° C., 20 days): 0.06% | Purity (40° C., 20 days): 99.70% | Total impurities (40° C., 20 days): 0.30% | Maximum single impurity (60° C., 4 days): 0.08% | Purity (60° C., 4 days): 99.72% | Total impurities (60° C., 4 days): 0.28% | Maximum single impurity (60° C., 10 days): 0.06% | Purity (60° C., 10 days): 99.75% | Total impurities (60° C., 10 days): 0.25% | Maximum single impurity (60° C., 20 days): 0.06% | Purity (60° C., 20 days): 99.70% | Total impurities (60° C., 20 days): 0.30% | Maximum single impurity (75% RH, 4 days): 0.09% | Purity (75% RH, 4 days): 99.72% | Total impurities (75% RH, 4 days): 0.28% | Maximum single impurity (75% RH, 10 days): 0.06% | Purity (75% RH, 10 days): 99.74% | Total impurities (75% RH, 10 days): 0.26% | Maximum single impurity (75% RH, 20 days): 0.08% | Purity (75% RH, 20 days): 99.68% | Total impurities (75% RH, 20 days): 0.32% | Maximum single impurity (90% RH, 4 days): 0.08% | Purity (90% RH, 4 days): 99.72% | Total impurities (90% RH, 4 days): 0.28% | Maximum single impurity (90% RH, 10 days): 0.06% | Purity (90% RH, 10 days): 99.76% | Total impurities (90% RH, 10 days): 0.24% | Maximum single impurity (90% RH, 20 days): 0.08% | Purity (90% RH, 20 days): 99.72% | Total impurities (90% RH, 20 days): 0.28% | Maximum single impurity [1]: 0.09% | Purity [1]: 99.70% | Total impurities [1]: 0.30% | Maximum single impurity [2]: 0.06% | Purity [2]: 99.75% | Total impurities [2]: 0.25% | Maximum single impurity [3]: 0.08% | Purity [3]: 99.63% | Total impurities [3]: 0.37% | stability under the influencing factor conditions (in words) [4]: good

— patent US20210188856A1, “CRYSTAL FORM OF HYDROCHLORIDE OF PYRAZOLOHETEROARYL DERIVATIVE AND PREPARATION METHOD” (JIANGSU HENGRUI MEDICINE CO., LTD., priority 2018, published 2021)
